# Measured values published in PubChem BioAssay AID248 (DTP/NCI, 2004).
# Several values for one entry are separate records, joined by “and”; a condition that tells them apart may be missing. Equal values may be shown once. Toxic doses and inconclusive results are not listed. Square brackets hold non-standard residues; d marks the D form. Peptide text beside a SMILES is read from it. * marks the point of attachment. ξ: configuration not given here. Cbz = O=C(OCc1ccccc1)*; ξV = CC(C)C(N)C(=O)O; OBn = c1ccc(CO*)cc1
# Tested on: L1210 leukemia ip in BDF1 mice, survival T/C
# Test: NCI In Vivo Anticancer Drug Screen. Data for tumor model L1210 Leukemia (intraperitoneal) in B6D2F1 (BDF1) mice
# Conditions: endpoint: mean survival time, higher = longer survival
# Procedure, shortened: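 In this screen, tumor-bearing mice given compound are compared to those given vehicle, and their survival values are reported as a treated-to-control quotient.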
smiles,measurement,setting,value
CC1(O)CSC(C)(O)CS1 (stereo not drawn),T/C,"dose: 50.0 mg/kg/injection, schedule: Q04DX002 (ip), vehicle: saline with Tween-80",98 % of control
same,T/C,"dose: 100.0 mg/kg/injection, schedule: Q04DX002 (ip), vehicle: saline with Tween-80",88 % of control
NC(=O)OCCCl,T/C,"dose: 100.0 mg/kg/injection, schedule: Q04DX002 (ip), vehicle: saline",98 % of control
same,T/C,"dose: 200.0 mg/kg/injection, schedule: Q04DX002 (ip), vehicle: saline",109 % of control
same,T/C,"dose: 400.0 mg/kg/injection, schedule: Q04DX002 (ip), vehicle: saline",102 % of control
CC(C)C(NC(=O)CNC(=O)CNC(=O)OCc1ccccc1)C(=O)OCc1ccccc1 (stereo not drawn) (Cbz-Gly-Gly-[ξV]-OBn),T/C,"dose: 100.0 mg/kg/injection, schedule: Q04DX003 (ip), vehicle: Klucel (hydroxypropylcellulose) (HPC)",95 % of control
same,T/C,"dose: 200.0 mg/kg/injection, schedule: Q04DX003 (ip), vehicle: Klucel (hydroxypropylcellulose) (HPC)",96 % of control
same,T/C,"dose: 400.0 mg/kg/injection, schedule: Q04DX003 (ip), vehicle: Klucel (hydroxypropylcellulose) (HPC)",96 % of control
NC1CC=CCC1c1ccc2c(c1)OCO2 (stereo not drawn),T/C,"dose: 75.0 mg/kg/injection, schedule: Q01DX001 (ip), vehicle: saline",100 % of control
same,T/C,"dose: 150.0 mg/kg/injection, schedule: Q01DX001 (ip), vehicle: saline",92 % of control
Cc1cc(-c2nnc(-c3ccc(O)c(C)c3)nn2)ccc1O,T/C,"dose: 100.0 mg/kg/injection, schedule: Q01DX009 (ip), vehicle: saline with Tween-80",94 % of control
same,T/C,"dose: 200.0 mg/kg/injection, schedule: Q01DX009 (ip), vehicle: saline with Tween-80",94 % of control
same,T/C,"dose: 400.0 mg/kg/injection, schedule: Q01DX009 (ip), vehicle: saline with Tween-80",91 % of control
O=C(Nc1ccc(NC(=O)Nc2cccc(C3=NCCN3)c2)cc1)Nc1cccc(C2=NCCN2)c1,T/C,"dose: 3.5 mg/kg/injection, schedule: Q#A X Z (ip), vehicle: saline",106 % of control
same,T/C,"dose: 7.0 mg/kg/injection, schedule: Q01DX Z (ip), vehicle: saline",115 % of control
same,T/C,"dose: 7.5 mg/kg/injection, schedule: Q01DX006 (iv), vehicle: saline",98 % of control
same,T/C,"dose: 7.5 mg/kg/injection, schedule: Q#A X Z (ip), vehicle: saline",117 % of control
same,T/C,"dose: 15.0 mg/kg/injection, schedule: Q01DX006 (iv), vehicle: saline",107 % of control
same,T/C,"dose: 15.0 mg/kg/injection, schedule: Q01DX Z (ip), vehicle: saline",111 % of control
same,T/C,"dose: 23.0 mg/kg/injection, schedule: Q03DX Z (ip), vehicle: saline",116 % of control
same,T/C,"dose: 30.0 mg/kg/injection, schedule: Q01DX006 (iv), vehicle: saline",116 % of control
same,T/C,"dose: 30.0 mg/kg/injection, schedule: Q01DX Z (sc), vehicle: carboxymethylcellulose (CMC)",102 % of control
same,T/C,"dose: 47.0 mg/kg/injection, schedule: Q03DX Z (ip), vehicle: saline",119 % of control
same,T/C,"dose: 55.0 mg/kg/injection, schedule: Q07DX Z (ip), vehicle: saline",121 % of control
same,T/C,"dose: 60.0 mg/kg/injection, schedule: Q01DX010 (ip), vehicle: saline",151 % of control and 153 % of control
same,T/C,"dose: 60.0 mg/kg/injection, schedule: Q01DX Z (im), vehicle: saline",110 % of control
same,T/C,"dose: 60.0 mg/kg/injection, schedule: Q01DX Z (ip), vehicle: carboxymethylcellulose (CMC)",286 % of control
same,T/C,"dose: 60.0 mg/kg/injection, schedule: Q01DX Z (sc), vehicle: carboxymethylcellulose (CMC)",110 % of control
same,T/C,"dose: 94.0 mg/kg/injection, schedule: Q03DX Z (ip), vehicle: saline",121 % of control
same,T/C,"dose: 120.0 mg/kg/injection, schedule: Q01DX010 (ip), vehicle: saline",182 % of control and 215 % of control
same,T/C,"dose: 120.0 mg/kg/injection, schedule: Q01DX Z (im), vehicle: saline",100 % of control
same,T/C,"dose: 120.0 mg/kg/injection, schedule: Q01DX Z (ip), vehicle: carboxymethylcellulose (CMC)",151 % of control
same,T/C,"dose: 120.0 mg/kg/injection, schedule: Q01DX Z (sc), vehicle: carboxymethylcellulose (CMC)",104 % of control
same,T/C,"dose: 148.0 mg/kg/injection, schedule: Q01DX Z (ip), vehicle: carboxymethylcellulose (CMC)",208 % of control
same,T/C,"dose: 219.0 mg/kg/injection, schedule: Q07DX Z (ip), vehicle: saline",154 % of control
same,T/C,"dose: 222.0 mg/kg/injection, schedule: Q01DX Z (ip), vehicle: carboxymethylcellulose (CMC)",298 % of control
same,T/C,"dose: 240.0 mg/kg/injection, schedule: Q01DX010 (ip), vehicle: saline",236 % of control and 263 % of control
same,T/C,"dose: 240.0 mg/kg/injection, schedule: Q01DX Z (ip), vehicle: carboxymethylcellulose (CMC)",318 % of control
same,T/C,"dose: 333.0 mg/kg/injection, schedule: Q01DX Z (ip), vehicle: carboxymethylcellulose (CMC)",353 % of control
same,T/C,"dose: 480.0 mg/kg/injection, schedule: Q01DX010 (ip), vehicle: saline",112 % of control and 268 % of control
same,T/C,"dose: 480.0 mg/kg/injection, schedule: Q01DX Z (im), vehicle: saline",184 % of control
same,T/C,"dose: 480.0 mg/kg/injection, schedule: Q01DX Z (ip), vehicle: carboxymethylcellulose (CMC)",102 % of control and 242 % of control
same,T/C,"dose: 500.0 mg/kg/injection, schedule: Q01DX Z (ip), vehicle: carboxymethylcellulose (CMC)",328 % of control
